Experimental data from BindingDB's records for PubMed 7903385 (Creighton University, 1993).

Molecular target: T1, Alpha-2A adrenergic receptor (Sus scrofa, UniProt P18871)
T1 sequence (P18871 whole entry): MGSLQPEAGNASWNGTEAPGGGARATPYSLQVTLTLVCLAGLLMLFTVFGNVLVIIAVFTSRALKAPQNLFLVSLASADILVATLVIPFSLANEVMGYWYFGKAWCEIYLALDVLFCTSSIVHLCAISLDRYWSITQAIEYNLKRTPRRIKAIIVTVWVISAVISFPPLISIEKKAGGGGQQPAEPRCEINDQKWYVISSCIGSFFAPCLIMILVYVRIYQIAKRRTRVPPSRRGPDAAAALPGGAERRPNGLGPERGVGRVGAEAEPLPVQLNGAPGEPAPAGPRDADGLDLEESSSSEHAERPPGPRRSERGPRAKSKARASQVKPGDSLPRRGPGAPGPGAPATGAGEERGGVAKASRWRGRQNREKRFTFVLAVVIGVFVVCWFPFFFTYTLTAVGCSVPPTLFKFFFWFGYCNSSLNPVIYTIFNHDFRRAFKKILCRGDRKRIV

C=Cc1sc2ccc(Cl)c3c2c1CN(C)CC3 [SKF 104856] gave a Ki of 54.5 nM.
